# Laboratory results taken from article PMC8592510 (CPT: Pharmacometrics & Systems Pharmacology, 2021).
# How the values were obtained:
# [1] = assay type: in vivo, human; settings: covariate analysis, allometric scaling principles
# [2] = Bayesian feedback population PK analyses of phase III data; assay type: in vivo; settings: human, plasma, oral
# [3] = cited from earlier work
# CYP3A = settings: cited from earlier work
# [4] = cited from earlier work; remark: listed apart in the source
# [5] = cited from earlier work; remark: listed apart in the source
# [6] = Logistic regression exposure-safety analyses; settings: alectinib 300 or 600 mg b.i.d.
Structure (SMILES),Body weight effect on clearance and volume [1],half-life [2],Blood-brain barrier penetration [3],Enzyme involved in metabolism (CYP3A),First-pass metabolism by cytochrome P450 (CYP) 3A (CYP3A),Lipophilicity [4],"Safety profile compared with crizotinib ([5]; J-ALEX, ALEX and ALESIA)",Effect of Caverage on severity of the first event for SAEs or Grade ≥3 AEs [6],"Relationship between Caverage and first occurrence of Grade ≥3 AEs ([6]; J-ALEX, ALEX, ALESIA)","Relationship between combined alectinib and M4 molar concentration (Caverage) and first occurrence of SAEs ([6]; J-ALEX, ALEX, ALESIA)","Frequency of Grade ≥3 AEs and SAEs, crizotinib versus alectinib ([5]; ALEX study)"
CCc1cc2c(cc1N1CCC(N3CCOCC3)CC1)C(C)(C)c1[nH]c3cc(C#N)ccc3c1C2=O [alectinib],significant body weight effect,34 h,can penetrate the blood–brain barrier,CYP3A is the main enzyme,limited,lipophilic,favorable safety profile compared with crizotinib,no apparent effect,no significant relationship,no significant relationship,–
C[C@@H](Oc1cc(-c2cnn(C3CCNCC3)c2)cnc1N)c1c(Cl)ccc(F)c1Cl [crizotinib],–,–,–,–,–,–,–,–,–,–,more frequent
